From US10829473B2, “Modulators of the cystic fibrosis transmembrane conductance regulator protein and methods of use” (AbbVie Overseas S.Á.R.L., priority 2017, dated 2020)
Where two headings read alike, the source gives them in different places.

Target: T1, F508delCFTR (Homo sapiens, UniProt P13569, DEL508-508)
T1 construct: expressed in transfected cells; host or cells: CFBE41o- human lung derived epithelial cells (CFBE41o-F508delCFTR-HRP), doxycycline-inducible
Assay: Cell Surface Expression-Horse Radish Peroxidase (CSE-HRP) Assay;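 as to EC50 (with co-corrector): co-corrector chromenyl benzoic acid corrector at 2 or 3 µM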;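 as to Maximum % activity (without co-corrector): % of on-plate positive control chromenyl benzoic acid corrector at 2 or 3 µM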
Type: cell-based
Details: for Maximum % activity (with co-corrector) / Emax: maximum at any tested concentration; for Emax: read-out: Maximum % activity (without co-corrector)
In short: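 Corrector compounds were given as 8-point 3-fold series from 20 or 30 μM, with or without a 2 μM co-corrector, for 18-24 h at 33 °C. Surface HRP was read by luminol luminescence as % of positive control; variable-Hill-slope sigmoidal fitting gave EC50 from triplicate plates.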

[1] = test compound alone, without co-corrector, read-out: EC50 (without co-corrector)
[2] = with co-corrector, read-out: EC50 (with co-corrector)
[3] = test compound with co-corrector
[4] = test compound with co-corrector, read-out: EC50 (with co-corrector)
[5] = test compound without co-corrector
[6] = test compound without co-corrector, read-out: EC50 (without co-corrector)

T1 sequence (P13569 with tags, fused parts or gaps DEL508-508): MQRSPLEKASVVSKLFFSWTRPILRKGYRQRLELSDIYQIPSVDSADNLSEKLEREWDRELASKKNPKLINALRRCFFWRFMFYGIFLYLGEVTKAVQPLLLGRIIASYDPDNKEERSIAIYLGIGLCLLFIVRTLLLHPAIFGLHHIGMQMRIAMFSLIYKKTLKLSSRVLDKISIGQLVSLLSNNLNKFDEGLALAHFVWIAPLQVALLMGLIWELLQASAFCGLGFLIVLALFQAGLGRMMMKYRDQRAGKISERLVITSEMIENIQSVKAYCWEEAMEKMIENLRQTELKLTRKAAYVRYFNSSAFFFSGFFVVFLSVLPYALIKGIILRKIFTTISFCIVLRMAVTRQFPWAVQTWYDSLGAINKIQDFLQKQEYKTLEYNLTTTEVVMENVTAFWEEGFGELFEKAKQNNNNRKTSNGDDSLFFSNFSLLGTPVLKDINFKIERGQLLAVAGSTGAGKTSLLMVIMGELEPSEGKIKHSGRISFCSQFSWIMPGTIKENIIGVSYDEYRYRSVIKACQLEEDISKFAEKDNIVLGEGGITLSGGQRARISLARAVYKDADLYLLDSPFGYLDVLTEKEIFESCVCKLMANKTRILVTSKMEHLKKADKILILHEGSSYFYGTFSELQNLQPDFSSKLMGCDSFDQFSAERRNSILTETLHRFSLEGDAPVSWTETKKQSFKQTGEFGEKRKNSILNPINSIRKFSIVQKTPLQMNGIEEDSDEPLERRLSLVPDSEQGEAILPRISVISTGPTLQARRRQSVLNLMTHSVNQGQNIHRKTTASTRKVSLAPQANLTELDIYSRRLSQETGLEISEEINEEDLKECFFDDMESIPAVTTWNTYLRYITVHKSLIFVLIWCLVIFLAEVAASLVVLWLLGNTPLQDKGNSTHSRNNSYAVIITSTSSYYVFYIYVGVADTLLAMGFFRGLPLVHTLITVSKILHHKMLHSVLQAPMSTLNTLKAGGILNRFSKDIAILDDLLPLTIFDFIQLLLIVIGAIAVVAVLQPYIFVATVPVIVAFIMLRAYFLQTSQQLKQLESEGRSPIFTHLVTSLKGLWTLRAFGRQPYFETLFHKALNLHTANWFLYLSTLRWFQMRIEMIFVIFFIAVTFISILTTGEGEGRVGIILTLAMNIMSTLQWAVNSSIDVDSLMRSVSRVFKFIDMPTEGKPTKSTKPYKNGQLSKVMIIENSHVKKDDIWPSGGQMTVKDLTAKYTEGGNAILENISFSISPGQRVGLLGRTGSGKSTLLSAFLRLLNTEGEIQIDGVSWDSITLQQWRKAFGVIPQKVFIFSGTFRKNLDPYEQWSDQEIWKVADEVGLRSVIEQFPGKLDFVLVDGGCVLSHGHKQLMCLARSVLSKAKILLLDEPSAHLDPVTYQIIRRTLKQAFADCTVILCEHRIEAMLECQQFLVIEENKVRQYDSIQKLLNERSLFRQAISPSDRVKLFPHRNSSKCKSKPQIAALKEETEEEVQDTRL

EC50 [1]	Maximum % activity (with co-corrector) (with co-corrector)	EC50 [2]	Emax (without co-corrector)	Maximum % activity (with co-corrector) [3]	EC50 [4]	Emax [5]	EC50 [6]	Structure (SMILES)
< 3 µM	+++ (≥350)	< 3 µM	> 150%	–	–	–	–	CCOc1ccc(C(C)(C)COC)cc1C1(C(=O)NS(=O)(=O)c2cccc3ncccc23)CC1 [Example I-101, 1-[2-ethoxy-5-(1-methoxy-2-methylpropan-2-yl)phenyl]-N-(quinoline-5-sulfonyl)cyclopropane-1-carboxamide]
3 to 10 µM	+++ (≥350)	< 3 µM	> 150%	–	–	–	–	COc1ccc(C)cc1C1(C(=O)NS(=O)(=O)c2cccc3[nH]ncc23)CC1 [Example I-53, N-(1H-indazole-4-sulfonyl)-1-(2-methoxy-5-methylphenyl)cyclopropane-1-carboxamide]
–	–	–	–	+++ (≥350)	< 3 µM	> 150%	3 to 10 µM	Cc1ccc2c(S(=O)(=O)NC(=O)C3(c4cc(Cl)cnc4N4CCCC4)CC3)cccc2n1 [Example GI-36, 1-[5-chloro-2-(pyrrolidin-1-yl)pyridin-3-yl]-N-(2-methylquinoline-5-sulfonyl)cyclopropane-1-carboxamide]
> 10 µM	+ (<150)	> 10 µM	< 50%	–	–	–	–	CC(=O)N1CCC(S(=O)(=O)NC(=O)C2(c3ccc(Cl)cc3Cl)CC2)CC1 [Example III-78, N-(1-acetylpiperidine-4-sulfonyl)-1-(2,4-dichlorophenyl)cyclopropane-1-carboxamide]
< 3 µM	+++ (≥350)	< 3 µM	> 150%	–	–	–	–	CCOc1ccc(C)cc1C1(C(=O)NS(=O)(=O)c2cccc3nc(C)ccc23)CC1 [Example I-83, 1-(2-ethoxy-5-methylphenyl)-N-(2-methylquinoline-5-sulfonyl)cyclopropane-1-carboxamide]
3 to 10 µM	+++ (≥350)	< 3 µM	> 150%	–	–	–	–	CC(C)c1nc(C(F)(F)F)ccc1C1(C(=O)NS(=O)(=O)c2cccc3ncccc23)CC1 [Example GI-7, 1-[2-(propan-2-yl)-6-(trifluoromethyl)pyridin-3-yl]-N-(quinoline-5-sulfonyl)cyclopropane-1-carboxamide]
–	–	–	–	+++ (≥350)	3 to 10 µM	> 150%	3 to 10 µM	COc1cnc(N2CCCC2)c(C2(C(=O)NS(=O)(=O)c3cccc4ncccc34)CC2)c1 [GII-40, 1-[5-methoxy-2-(pyrrolidin-1-yl)pyridin-3-yl]-N-(quinoline-5-sulfonyl)cyclopropane-1-carboxamide]
3 to 10 µM	+++ (≥350)	< 3 µM	> 150%	–	–	–	–	COc1ccc(C2CCC2)cc1C1(C(=O)NS(=O)(=O)c2cccc3c2CCCN3)CC1 [Example I-16, 1-(5-cyclobutyl-2-methoxyphenyl)-N-(1,2,3,4-tetrahydroquinoline-5-sulfonyl)cyclopropane-1-carboxamide]
< 3 µM	+++ (≥350)	< 3 µM	> 150%	–	–	–	–	CCc1ccc(O[C@H]2CCOC2)c(C2(C(=O)NS(=O)(=O)c3cccc4nc(C)ccc34)CC2)c1 [II-115]
< 3 µM	+++ (≥350)	< 3 µM	> 150%	–	–	–	–	COc1ccc(Br)cc1C1(C(=O)NS(=O)(=O)c2cccc3c2CCCN3)CC1 [Example I-11, 1-(5-bromo-2-methoxyphenyl)-N-(1,2,3,4-tetrahydroquinoline-5-sulfonyl)cyclopropane-1-carboxamide]
> 10 µM	++ (≥150 and <350)	3 to 10 µM	< 50%	–	–	–	–	O=C(NS(=O)(=O)Cc1ccccc1)C1(c2ccccc2Cl)CC1 [Example III-113, 1-(2-chlorophenyl)-N-(phenylmethanesulfonyl)cyclopropane-1-carboxamide]
< 3 µM	+++ (≥350)	< 3 µM	> 150%	–	–	–	–	COc1ccc(OC(C)C)cc1C1(C(=O)NS(=O)(=O)c2cccc3ncccc23)CC1 [Example I-14, 1-{2-methoxy-5-[(propan-2-yl)oxy]phenyl}-N-(quinoline-5-sulfonyl)cyclopropane-1-carboxamide]
< 3 µM	+++ (≥350)	< 3 µM	> 150%	–	–	–	–	CN(C)c1ncc(C(F)(F)F)cc1C1(C(=O)NS(=O)(=O)c2cccc3ncccc23)CC1 [Example I-57, 1-[2-(dimethylamino)-5-(trifluoromethyl)pyridin-3-yl]-N-(quinoline-5-sulfonyl)cyclopropane-1-carboxamide]
3 to 10 µM	+++ (≥350)	< 3 µM	> 150%	–	–	–	–	COc1c(Cl)cc(Cl)c(OC)c1C1(C(=O)NS(=O)(=O)c2cccc3ncccc23)CC1 [Example III-103, 1-(3,5-dichloro-2,6-dimethoxyphenyl)-N-(quinoline-5-sulfonyl)cyclopropane-1-carboxamide]
< 3 µM	+++ (≥350)	< 3 µM	> 150%	–	–	–	–	COc1ccc(C)c(C)c1C1(C(=O)NS(=O)(=O)c2cccc3ncccc23)CC1 [Example I-47, 1-(6-methoxy-2,3-dimethylphenyl)-N-(quinoline-5-sulfonyl)cyclopropane-1-carboxamide]
–	–	–	–	+++ (≥350)	< 3 µM	> 150%	< 3 µM	CCc1cnc(OCC(C)C)c(C2(C(=O)NS(=O)(=O)c3cccc4ncccc34)CC2)c1 [Example GI-45, 1-[5-ethyl-2-(2-methylpropoxy)pyridin-3-yl]-N-(quinoline-5-sulfonyl)cyclopropane-1-carboxamide]
3 to 10 µM	++ (≥150 and <350)	3 to 10 µM	< 50%	–	–	–	–	Cc1ccc(C2(C(=O)NS(=O)(=O)c3ccccc3)CC2)cc1 [Example III-29, N-(benzenesulfonyl)-1-(4-methylphenyl)cyclopropane-1-carboxamide]
–	–	–	–	+++ (≥350)	< 3 µM	> 150%	< 3 µM	Cc1cnc(OCC(C)C)c(C2(C(=O)NS(=O)(=O)c3cccc4[nH]ccc34)CC2)c1 [Example GI-44, N-(1H-indole-4-sulfonyl)-1-[5-methyl-2-(2-methylpropoxy)pyridin-3-yl]cyclopropane-1-carboxamide]
< 3 µM	+++ (≥350)	< 3 µM	> 150%	–	–	–	–	COc1ccc(C2CCC2)cc1C1(C(=O)NS(=O)(=O)c2cccc3cnn(C)c23)CCC1 [Example I-25, 1-(5-cyclobutyl-2-methoxyphenyl)-N-(1-methyl-1H-indazole-7-sulfonyl)cyclobutane-1-carboxamide]
–	–	–	–	+++ (≥350)	< 3 µM	> 150%	3 to 10 µM	CC(C)Oc1ncc(N(C)C)cc1C1(C(=O)NS(=O)(=O)c2cccc3[nH]ccc23)CC1 [Example GI-73, 1-{5-(dimethylamino)-2-[(propan-2-yl)oxy]pyridin-3-yl}-N-(1H-indole-4-sulfonyl)cyclopropane-1-carboxamide]
3 to 10 µM	+++ (≥350)	< 3 µM	> 150%	–	–	–	–	COc1cccc(C)c1C1(C(=O)NS(=O)(=O)c2cccc3nc(C)ccc23)CC1 [II-50]
< 3 µM	+++ (≥350)	< 3 µM	> 150%	–	–	–	–	CC(C)COc1cnc(C2CC2)c(C2(C(=O)NS(=O)(=O)c3cccc4ncccc34)CC2)c1 [Example GI-12, 1-[2-cyclopropyl-5-(2-methylpropoxy)pyridin-3-yl]-N-(quinoline-5-sulfonyl)cyclopropane-1-carboxamide]
< 3 µM	+++ (≥350)	< 3 µM	> 150%	–	–	–	–	COc1ccc(C2CC2)c(C)c1C1(C(=O)NS(=O)(=O)c2cccc3c2CCCN3)CC1 [II-37]
< 3 µM	+++ (≥350)	< 3 µM	> 150%	–	–	–	–	CCOc1ccc(C)cc1C1(C(=O)NS(=O)(=O)c2cccc3[nH]ncc23)CC1 [II-74]
> 10 µM	+ (<150)	> 10 µM	< 50%	–	–	–	–	O=C(NS(=O)(=O)C1CCS(=O)(=O)C1)C1(c2ccc(Cl)cc2Cl)CC1 (stereo not drawn) [Example III-36, 1-(2,4-dichlorophenyl)-N-(1,1-dioxo-1λ^6-thiolane-3-sulfonyl)cyclopropane-1-carboxamide]
–	–	–	–	++ (≥150 and <350)	3 to 10 µM	50 to 150%	3 to 10 µM	CC(C)Oc1ncccc1C1(C(=O)NS(=O)(=O)c2cccc3c2CCCN3)CC1 [GII-4, 1-{2-[(propan-2-yl)oxy]pyridin-3-yl}-N-(1,2,3,4-tetrahydroquinoline-5-sulfonyl)cyclopropane-1-carboxamide]
3 to 10 µM	++ (≥150 and <350)	3 to 10 µM	< 50%	–	–	–	–	O=C(NS(=O)(=O)c1ccccc1)C1(c2ccc(Cl)cc2)CC1 [Example III-33, N-(benzenesulfonyl)-1-(4-chlorophenyl)cyclopropane-1-carboxamide]
